Molecular target: HSP90 (Homo sapiens, UniProt P07900)
Test: HSP90 inhibition (HSP90 IC50)
Format: biochemical

SMILES	IC50
COc1ccc(C(=O)N[C@H]2C[C@H]3CC[C@@H](C2)N3c2ccc(C(=O)NCc3ccccc3)cn2)c(C)c1OC [6-[3-endo-({[2-methyl-3,4-bis(methyloxy)phenyl]carbonyl}amino)-8-azabicyclo[3.2.1]oct-8-yl]-N-(phenylmethyl)pyridine-3-carboxamide]	2 to 10 µM
COc1cccc(C(=O)NC2CC3CCC(C2)N3c2ccc(C(=O)NC3CCN(c4ccccc4)CC3)cn2)c1C (stereo not drawn) [6-[3-endo-({[2-methyl-3-(methyboxy)phenyl]carbonyl}amino)-8-azabicyclo[3.2.1]oct-8-yl]-N-(1-phenylpiperidin-4-yl)pyridine-3-carboxamide]	2 to 10 µM
CNc1cccc(C(=O)NC2CC3CCC(C2)N3c2ccc(C(=O)N[C@@H](C)c3ccc(N4CCN(C)CC4)cc3)cn2)c1C (stereo partly drawn) [6-[3-endo-({[2-methyl-3-(methylamino)phenyl]carbonyl}amino)-8-azabicyclo[3.2.1]oct-8-yl]-N-{(1S)-1-[4-(4-methylpiperazin-1-yl)phenyl]ethyl}pyridine-3-carboxamide]	< 0.5 µM
C#CCNC(=O)c1ccc(N2[C@@H]3CC[C@H]2C[C@@H](NC(=O)c2cccc(OC)c2C)C3)nc1 [6-[3-endo-({[2-methyl-3-(methyloxy)phenyl)carbonyl}amino)-8-azabicyclo(3.2.1]oct-8-yl]-N-prop-2-yn-1-ylpyridine-3-carboxamide]	1 to 2 µM
COc1cccc(C(=O)N[C@H]2C[C@H]3CC[C@@H](C2)N3c2ccc(C(=O)NC3CCN(C)CC3)cn2)c1C [6-[3-endo-({[2-methyl-3-(methyloxy)phenyl]carbonyl}amino)-8-azabicyclo[3.2.1]oct-8-yl]-N-(1-methylpiperidin-4-yl)pyridine-3-carboxamide]	0.5 to 0.999 µM
COc1cccc(C(=O)N[C@H]2C[C@H]3CC[C@@H](C2)N3c2ccc(C(=O)Nc3ccccc3C)cn2)c1C [6-[3-endo-({[2-methyl-3-(methyloxy)phenyl]carbonyl}amino)-8-azabicyclo[3.2.1]oct-8-yl]-N-(2-methylphenyl)pyridine-3-carboxamide]	2 to 10 µM
COc1cccc(C(=O)N[C@H]2C[C@H]3CC[C@@H](C2)N3c2ccc(C(=O)NCC(C)C)cn2)c1C [6-[3-endo-({[2-methyl-3-(methyloxy)phenyl]carbonyl}amino)-8-azabicyclo[3.2.1]oct-8-yl]-N-(2-methylpropyl)pyridine-3-carboxamide]	1 to 2 µM
COc1cccc(C(=O)N[C@H]2C[C@H]3CC[C@@H](C2)N3c2ccc(C(=O)NCCN3CCOCC3)cn2)c1C [6-[3-endo-({[2-methyl-3-(methyloxy)phenyl]carbonyl}amino)-8-azabicyclo[3.2.1]oct-8-yl]-N-(2-morpholin-4-ylethyl)pyridine-3-carboxamide]	1 to 2 µM
COc1cccc(C(=O)N[C@H]2C[C@H]3CC[C@@H](C2)N3c2ccc(C(=O)NCCN3CCCCC3)cn2)c1C [6-[3-endo-({[2-methyl-3-(methyloxy)phenyl]carbonyl}amino)-8-azabicyclo[3.2.1]oct-8-yl]-N-(2-piperidin-1-ylethyl)pyridine-3-carboxamide]	1 to 2 µM
COc1cccc(C(=O)N[C@H]2C[C@H]3CC[C@@H](C2)N3c2ccc(C(=O)NCCc3cccnc3)cn2)c1C [6-[3-endo-({[2-methyl-3-(methyloxy)phenyl]carbonyl}amino)-8-azabicyclo[3.2.1]oct-8-yl]-N-(2-pyridin-3-ylethyl)pyridine-3-carboxamide]	1 to 2 µM
COc1cccc(C(=O)N[C@H]2C[C@H]3CC[C@@H](C2)N3c2ccc(C(=O)NCCc3ccncc3)cn2)c1C [6-[3-endo-({[2-methyl-3-(methyloxy)phenyl]carbonyl}amino)-8-azabicyclo[3.2.1]oct-8-yl]-N-(2-pyridin-4-ylethyl)pyridine-3-carboxamide]	1 to 2 µM
COc1cccc(C(=O)N[C@H]2C[C@H]3CC[C@@H](C2)N3c2ccc(C(=O)Nc3cccc(C)c3)cn2)c1C [6-[3-endo-({[2-methyl-3-(methyloxy)phenyl]carbonyl}amino)-8-azabicyclo[3.2.1]oct-8-yl]-N-(3-methylphenyl)pyridine-3-carboxamide]	2 to 10 µM
COc1cccc(C(=O)N[C@H]2C[C@H]3CC[C@@H](C2)N3c2ccc(C(=O)NCCCN3CCOCC3)cn2)c1C [6-[3-endo-({[2-methyl-3-(methyloxy)phenyl]carbonyl}amino)-8-azabicyclo[3.2.1]oct-8-yl]-N-(3-morpholin-4-ylpropyl)pyridine-3-carboxamide]	0.5 to 0.999 µM
COc1cccc(C(=O)N[C@H]2C[C@H]3CC[C@@H](C2)N3c2ccc(C(=O)Nc3ccc(C)cc3)cn2)c1C [6-[3-endo-({[2-methyl-3-(methyloxy)phenyl]carbonyl}amino)-8-azabicyclo[3.2.1]oct-8-yl]-N-(4-methylphenyl)pyridine-3-carboxamide]	1 to 2 µM
COc1cccc(C(=O)N[C@H]2C[C@H]3CC[C@@H](C2)N3c2ccc(C(=O)NCc3cccnc3)cn2)c1C [6-[3-endo-({[2-methyl-3-(methyloxy)phenyl]carbonyl}amino)-8-azabicyclo[3.2.1]oct-8-yl]-N-(pyridin-3-ylmethyl)pyridine-3-carboxamide]	< 0.5 µM
COc1cccc(C(=O)NC2CC3CCC(C2)N3c2ccc(C(=O)NCC3CCCO3)cn2)c1C (stereo not drawn) [6-[3-endo-({[2-methyl-3-(methyloxy)phenyl]carbonyl}amino)-8-azabicyclo[3.2.1]oct-8-yl]-N-(tetrahydrofuran-2-ylmethyl)pyridine-3-carboxamide]	2 to 10 µM
COc1cccc(C(=O)N[C@H]2C[C@H]3CC[C@@H](C2)N3c2ccc(C(=O)NCc3ccc(N4CCN(CC(C)C)CC4)cc3)cn2)c1C [6-[3-endo-({[2-methyl-3-(methyloxy)phenyl]carbonyl}amino)-8-azabicyclo[3.2.1]oct-8-yl]-N-({4-[4-(2-methylpropyl)piperazin-1-yl]phenyl}methyl)pyridine-3-carboxamide]	< 0.5 µM
COc1cccc(C(=O)N[C@H]2C[C@H]3CC[C@@H](C2)N3c2ccc(C(=O)NCc3ccc(OC(F)(F)F)cc3)cn2)c1C [6-[3-endo-({[2-methyl-3-(methyloxy)phenyl]carbonyl}amino)-8-azabicyclo[3.2.1]oct-8-yl]-N-({4-[(trifluoromethyl)oxy]phenyl}methyl) pyridine-3-carboxamide]	2 to 10 µM
COc1cccc(C(=O)NC2CC3CCC(C2)N3c2ccc(C(=O)NC(C)c3ccc(N4CCNCC4)nc3)cn2)c1C (stereo not drawn) [6-[3-endo-({[2-methyl-3-(methyloxy)phenyl]carbonyl}amino)-8-azabicyclo[3.2.1]oct-8-yl]-N-[1-(6-piperazin-1-ylpyridin-3-yl)ethyl]pyridine-3-carboxamide]	< 0.5 µM
COc1cccc(C(=O)N[C@H]2C[C@H]3CC[C@@H](C2)N3c2ccc(C(=O)NC3CCN(Cc4ccccc4)CC3)cn2)c1C [6-[3-endo-({[2-methyl-3-(methyloxy)phenyl]carbonyl}amino)-8-azabicyclo[3.2.1]oct-8-yl]-N-[1-(phenylmethyl)piperidin-4-yl]pyridine-3-carboxamide]	< 0.5 µM
COc1cccc(C(=O)NC2CC3CCC(C2)N3c2ccc(C(=O)NCCC3CCCN3C)cn2)c1C (stereo not drawn) [6-[3-endo-({[2-methyl-3-(methyloxy)phenyl]carbonyl}amino)-8-azabicyclo[3.2.1]oct-8-yl]-N-[2-(1-methylpyrrolidin-2-yl)ethyl]pyridine-3-carboxamide]	0.5 to 0.999 µM
COCCNC(=O)c1ccc(N2[C@@H]3CC[C@H]2C[C@@H](NC(=O)c2cccc(OC)c2C)C3)nc1 [6-[3-endo-({[2-methyl-3-(methyloxy)phenyl]carbonyl}amino)-8-azabicyclo[3.2.1]oct-8-yl]-N-[2-(methyloxy)ethyl]pyridine-3-carboxamide]	2 to 10 µM
COc1ccccc1NC(=O)c1ccc(N2[C@@H]3CC[C@H]2C[C@@H](NC(=O)c2cccc(OC)c2C)C3)nc1 [6-[3-endo-({[2-methyl-3-(methyloxy)phenyl]carbonyl}amino)-8-azabicyclo[3.2.1]oct-8-yl]-N-[2-(methyloxy)phenyl]pyridine-3-carboxamide]	2 to 10 µM
COc1cccc(C(=O)N[C@H]2C[C@H]3CC[C@@H](C2)N3c2ccc(C(=O)NCCSC)cn2)c1C [6-[3-endo-({[2-methyl-3-(methyloxy)phenyl]carbonyl}amino)-8-azabicyclo[3.2.1]oct-8-yl]-N-[2-(methylthio)ethyl]pyridine-3-carboxamide]	1 to 2 µM
COc1cccc(C(=O)N[C@H]2C[C@H]3CC[C@@H](C2)N3c2ccc(C(=O)NCCCN3CCCC3=O)cn2)c1C [6-[3-endo-({[2-methyl-3-(methyloxy)phenyl]carbonyl}amino)-8-azabicyclo[3.2.1]oct-8-yl]-N-[3-(2-oxopyrrolidin-1-yl)propyl]pyridine-3-carboxamide]	0.5 to 0.999 µM
COc1cccc(C(=O)N[C@H]2C[C@H]3CC[C@@H](C2)N3c2ccc(C(=O)NCCCN3CCN(C)CC3)cn2)c1C [6-[3-endo-({[2-methyl-3-(methyloxy)phenyl]carbonyl}amino)-8-azabicyclo[3.2.1]oct-8-yl]-N-[3-(4-methylpiperazin-1-yl)propyl]pyridine-3-carboxamide]	0.5 to 0.999 µM
COc1cccc(NC(=O)c2ccc(N3[C@@H]4CC[C@H]3C[C@@H](NC(=O)c3cccc(OC)c3C)C4)nc2)c1 [6-[3-endo-({[2-methyl-3-(methyloxy)phenyl]carbonyl}amino)-8-azabicyclo[3.2.1]oct-8-yl]-N-[3-(methyloxy)phenyl]pyridine-3-carboxamide]	2 to 10 µM
COCCCNC(=O)c1ccc(N2[C@@H]3CC[C@H]2C[C@@H](NC(=O)c2cccc(OC)c2C)C3)nc1 [6-[3-endo-({[2-methyl-3-(methyloxy)phenyl]carbonyl}amino)-8-azabicyclo[3.2.1]oct-8-yl]-N-[3-(methyloxy)propyl]pyridine-3-carboxamide]	0.5 to 0.999 µM
CCCOCCCNC(=O)c1ccc(N2[C@@H]3CC[C@H]2C[C@@H](NC(=O)c2cccc(OC)c2C)C3)nc1 [6-[3-endo-({[2-methyl-3-(methyloxy)phenyl]carbonyl}amino)-8-azabicyclo[3.2.1]oct-8-yl]-N-[3-endo-(propyloxy)propyl]pyridine-3-carboxamide]	0.5 to 0.999 µM
COc1cccc(C(=O)N[C@H]2C[C@H]3CC[C@@H](C2)N3c2ccc(C(=O)Nc3ccc(C4CCN(C)CC4)cc3)cn2)c1C [6-[3-endo-({[2-methyl-3-(methyloxy)phenyl]carbonyl}amino)-8-azabicyclo[3.2.1]oct-8-yl]-N-[4-(1-methylpiperidin-4-yl)phenyl]pyridine-3-carboxamide]	1 to 2 µM

— patent US8012956B2, “Tropane compounds” (Exelixis, Inc., priority 2007, dated 2011)
